How the values were obtained:
UMC-11 = assay: cells; assay type: functional, cell-based; conditions: Homo sapiens;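 further: growth inhibition of UMC-11 cells, read out with a cell viability assay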
Description: SANGER: Inhibition of human UMC-11 cell growth in a cell viability assay.

NCI-H889 = assay: cells; assay type: functional, cell-based, Homo sapiens; conditions: Homo sapiens, NCI-H889;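 further: cell growth inhibition of the cell line, read out with a viability assay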
Description: SANGER: Inhibition of human NCI-H889 cell growth in a cell viability assay.

DMS-79 = assay: cells; assay type: functional, cell-based, Homo sapiens; conditions: Homo sapiens, DMS-79
Description: SANGER: Inhibition of human DMS-79 cell growth in a cell viability assay.

IST-SL2 = assay: cells; assay type: functional, cell-based, Homo sapiens; conditions: Homo sapiens, IST-SL2;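 further: growth inhibition of human IST-SL2 cells, read out by a cell viability assay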
Description: SANGER: Inhibition of human IST-SL2 cell growth in a cell viability assay.

8305C = assay: cells; assay type: functional, cell-based; conditions: Homo sapiens
Description: SANGER: Inhibition of human 8305C cell growth in a cell viability assay.

CAL-72 = assay: cells; assay type: functional, cell-based; conditions: Homo sapiens;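 further: cell viability assay measuring inhibition of proliferation in the CAL-72 cell line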
Description: SANGER: Inhibition of human CAL-72 cell growth in a cell viability assay.

NCI-H28 = assay: cells; assay type: functional, cell-based; conditions: Homo sapiens;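 further: growth inhibition of human NCI-H28 cells, read out as cell viability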
Description: SANGER: Inhibition of human NCI-H28 cell growth in a cell viability assay.

DK-MG = assay: cells; assay type: functional, cell-based; conditions: Homo sapiens;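 further: growth inhibition of DK-MG cells, read out with a cell viability assay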
Description: SANGER: Inhibition of human DK-MG cell growth in a cell viability assay.

P31-FUJ = assay: cells; assay type: functional, cell-based, Homo sapiens; conditions: Homo sapiens, P31-FUJ;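 further: growth inhibition of P31-FUJ cells, read out with a viability assay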
Description: SANGER: Inhibition of human P31-FUJ cell growth in a cell viability assay.

NCI-H1623 = assay: cells; assay type: functional, cell-based; conditions: Homo sapiens;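 further: cell viability assay used as the read-out for growth inhibition of NCI-H1623 cells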
Description: SANGER: Inhibition of human NCI-H1623 cell growth in a cell viability assay.

NCI-H187 = assay: cells; assay type: functional, cell-based, Homo sapiens; conditions: Homo sapiens, NCI-H187;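 further: growth inhibition of NCI-H187 cells, read out as cell viability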
Description: SANGER: Inhibition of human NCI-H187 cell growth in a cell viability assay.

NALM-6 = assay: cells; assay type: functional, cell-based, Homo sapiens; conditions: Homo sapiens, NALM-6;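 further: growth inhibition of NALM-6 cells, read out with a cell viability assay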
Description: SANGER: Inhibition of human NALM-6 cell growth in a cell viability assay.

MG-63 = assay: cells; assay type: functional, cell-based; conditions: Homo sapiens;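 further: growth inhibition of human MG-63 cells, read out with a cell viability assay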
Description: SANGER: Inhibition of human MG-63 cell growth in a cell viability assay.

OVCAR-8 = assay: cells; assay type: functional, cell-based; conditions: Homo sapiens;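 further: growth inhibition of human OVCAR-8 cells, read out by a cell viability assay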
Description: SANGER: Inhibition of human OVCAR-8 cell growth in a cell viability assay.

MIA PaCa-2 = assay: cells; assay type: functional, cell-based; conditions: Homo sapiens;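 further: growth inhibition of MIA PaCa-2 cells, read out with a cell viability assay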
Description: SANGER: Inhibition of human MIA-PaCa-2 cell growth in a cell viability assay.

Panc1005 = assay: cells; assay type: functional, cell-based; conditions: Homo sapiens;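 further: growth inhibition of human PANC-10-05 cells, measured by a cell viability assay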
Description: SANGER: Inhibition of human PANC-10-05 cell growth in a cell viability assay.

SW948 = assay: cells; assay type: functional, cell-based; conditions: Homo sapiens;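 further: growth inhibition of SW948 cells, read out with a cell viability assay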
Description: SANGER: Inhibition of human SW948 cell growth in a cell viability assay.

SK-MEL-28 = assay: cells; assay type: functional, cell-based; conditions: Homo sapiens;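 further: growth inhibition of human SK-MEL-28 cells, read out with a cell viability assay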
Description: SANGER: Inhibition of human SK-MEL-28 cell growth in a cell viability assay.

769-P = assay: cells; assay type: functional, cell-based; conditions: Homo sapiens
Description: SANGER: Inhibition of human 769-P cell growth in a cell viability assay.

P12-Ichikawa = assay: cells; assay type: functional, cell-based; conditions: Homo sapiens
RO82-W-1 = assay: cells; assay type: functional, cell-based; conditions: Homo sapiens;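 further: growth inhibition of human RO82-W-1 cells, measured with a cell viability assay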
Description: SANGER: Inhibition of human RO82-W-1 cell growth in a cell viability assay.

MeWo = assay: cells; assay type: functional, cell-based; conditions: Homo sapiens;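 further: growth inhibition of MeWo cells, determined by a cell viability readout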
Description: SANGER: Inhibition of human Mewo cell growth in a cell viability assay.

KP-4 = assay: cells; assay type: functional, cell-based; conditions: Homo sapiens;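 further: human KP-4 cells, with growth inhibition read out through a cell viability assay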
Description: SANGER: Inhibition of human KP-4 cell growth in a cell viability assay.

U2OS = assay: cells; assay type: functional, cell-based, U-2-OS; conditions: Homo sapiens;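 further: growth inhibition of human U-2-OS cells, determined with a cell viability assay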
Description: SANGER: Inhibition of human U-2-OS cell growth in a cell viability assay.

NCI-H2347 = assay: cells; assay type: functional, cell-based; conditions: Homo sapiens;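 further: growth inhibition of the cell line, read out with a cell viability assay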
Description: SANGER: Inhibition of human NCI-H2347 cell growth in a cell viability assay.

BHT-101 = assay: cells; assay type: functional, cell-based; conditions: Homo sapiens
Description: SANGER: Inhibition of human BHT-101 cell growth in a cell viability assay.

HT55 = assay: cells; assay type: functional, cell-based; conditions: Homo sapiens;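 further: cell viability readout measuring growth inhibition of human HT55 cells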
Description: SANGER: Inhibition of human HT55 cell growth in a cell viability assay.

A-431 = assay: cells; assay type: functional, cell-based; conditions: Homo sapiens;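 further: growth inhibition of A-431 cells, determined with a cell viability read-out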
Description: SANGER: Inhibition of human A431 cell growth in a cell viability assay.

Huh-7 = assay: cells; assay type: functional, cell-based; conditions: Homo sapiens;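 further: HuH-7 cell growth inhibition, read out with a cell viability assay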
Description: SANGER: Inhibition of human HuH-7 cell growth in a cell viability assay.

NCCIT = assay: SANGER: Inhibition of human NCCIT cell growth in a cell viability assay.; assay type: functional, cell-based; conditions: Homo sapiens, NCCIT
SK-N-AS = assay: cells; assay type: functional, cell-based; conditions: Homo sapiens;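 further: growth inhibition of human SK-N-AS cells, measured with a cell viability assay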
Description: SANGER: Inhibition of human SK-N-AS cell growth in a cell viability assay.

SK-MEL-30 = assay: cells; assay type: functional, cell-based; conditions: Homo sapiens;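 further: growth inhibition of SK-MEL-30 cells, determined with a cell viability assay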
Description: SANGER: Inhibition of human SK-MEL-30 cell growth in a cell viability assay.

SAOS-2 = assay: cells; assay type: functional, cell-based; conditions: Homo sapiens;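 further: growth inhibition of human Saos-2 cells determined by a cell viability assay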
Description: SANGER: Inhibition of human Saos-2 cell growth in a cell viability assay.

23132-87 = assay: cells; assay type: functional, cell-based; conditions: Homo sapiens
Description: SANGER: Inhibition of human 23132-87 cell growth in a cell viability assay.

647-V = assay: cells; assay type: functional, cell-based; conditions: Homo sapiens;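 further: growth inhibition of 647-V cells, read out with a cell viability assay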
Description: SANGER: Inhibition of human 647-V cell growth in a cell viability assay.

MFH-ino = assay: cells; assay type: functional, cell-based, Homo sapiens; conditions: Homo sapiens, MFH-ino;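 further: growth inhibition of human MFH-ino cells, read out by a cell viability assay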
Description: SANGER: Inhibition of human MFH-ino cell growth in a cell viability assay.

EFM-19 = assay: cells; assay type: functional, cell-based; conditions: Homo sapiens;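 further: growth inhibition of human EFM-19 cells, measured in a cell viability assay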
Description: SANGER: Inhibition of human EFM-19 cell growth in a cell viability assay.

MHH-ES-1 = assay: cells; assay type: functional, cell-based; conditions: Homo sapiens
Description: SANGER: Inhibition of human MHH-ES-1 cell growth in a cell viability assay.

NCI-H460 = assay: cells; assay type: functional, cell-based; conditions: Homo sapiens;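 further: cell viability assay scoring growth inhibition of human NCI-H460 cells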
Description: SANGER: Inhibition of human NCI-H460 cell growth in a cell viability assay.

OE33 = assay: cells; assay type: functional, cell-based; conditions: Homo sapiens;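 further: growth inhibition of human OE33 cells, measured by a cell viability assay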
Description: SANGER: Inhibition of human OE33 cell growth in a cell viability assay.

G-401 = assay: cells; assay type: functional, cell-based; conditions: Homo sapiens
Description: SANGER: Inhibition of human G-401 cell growth in a cell viability assay.

EGI-1 = assay: cells; assay type: functional, cell-based; conditions: Homo sapiens;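 further: cell viability readout used to gauge growth inhibition of EGI-1 cells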
Description: SANGER: Inhibition of human EGI-1 cell growth in a cell viability assay.

ChaGo-K-1 = assay: cells; assay type: functional, cell-based; conditions: Homo sapiens;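 further: growth inhibition of ChaGo-K-1 cells, read out with a cell viability assay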
Description: SANGER: Inhibition of human ChaGo-K-1 cell growth in a cell viability assay.

EVSA-T = assay: cells; assay type: functional, cell-based, Homo sapiens; conditions: Homo sapiens, EVSA-T;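 further: growth inhibition of EVSA-T cells, read out with a cell viability assay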
Description: SANGER: Inhibition of human EVSA-T cell growth in a cell viability assay.

SF-295 = assay: cells; assay type: functional, cell-based; conditions: Homo sapiens;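 further: growth inhibition of SF-295 cells, read out with a cell viability assay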
Description: SANGER: Inhibition of human SF295 cell growth in a cell viability assay.

MKN-28 = assay: cells; assay type: functional, cell-based; conditions: Homo sapiens;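 further: cell viability assay read-out, IC50 reflects suppression of growth of human MKN-28 cells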
Description: SANGER: Inhibition of human MKN28 cell growth in a cell viability assay.

5637 = assay: cells; assay type: functional, cell-based; conditions: Homo sapiens
Description: SANGER: Inhibition of human 5637 cell growth in a cell viability assay.

WM-115 = assay: cells; assay type: functional, cell-based; conditions: Homo sapiens
Description: SANGER: Inhibition of human WM-115 cell growth in a cell viability assay.

NCI-H719 = assay: cells; assay type: functional, cell-based, Homo sapiens; conditions: Homo sapiens, NCI-H719;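 further: growth inhibition of the cultured cell line, read out with a viability assay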
Description: SANGER: Inhibition of human NCI-H719 cell growth in a cell viability assay.

BCPAP = assay: cells; assay type: functional, cell-based; conditions: Homo sapiens;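 further: growth inhibition of BCPAP cells, read out in a cell viability assay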
Description: SANGER: Inhibition of human BCPAP cell growth in a cell viability assay.

WSU-NHL = assay: cells; assay type: functional, cell-based, Homo sapiens; conditions: Homo sapiens, WSU-NHL;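 further: growth inhibition of human WSU-NHL cells, read out with a cell viability assay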
Description: SANGER: Inhibition of human WSU-NHL cell growth in a cell viability assay.

NCI-H441 = assay: cells; assay type: functional, cell-based; conditions: Homo sapiens;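 further: growth inhibition of NCI-H441 cells, read out with a cell viability assay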
Description: SANGER: Inhibition of human NCI-H441 cell growth in a cell viability assay.

PANC-08-13 = assay: cells; assay type: functional, cell-based; conditions: Homo sapiens
Description: SANGER: Inhibition of human PANC-08-13 cell growth in a cell viability assay.

BL-41 = assay: cells; assay type: functional, cell-based; conditions: Homo sapiens;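 further: growth inhibition of human BL-41 cells, read out with a cell viability assay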
Description: SANGER: Inhibition of human BL-41 cell growth in a cell viability assay.

HSC-3 = assay: cells; assay type: functional, cell-based; conditions: Homo sapiens
Description: SANGER: Inhibition of human HSC-3 cell growth in a cell viability assay.

HPAF-II = assay: cells; assay type: functional, cell-based; conditions: Homo sapiens;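 further: growth inhibition of HPAF-II cells, read out with a cell viability assay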
Description: SANGER: Inhibition of human HPAF-II cell growth in a cell viability assay.

SCC-25 = assay: cells; assay type: functional, cell-based; conditions: Homo sapiens;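 further: growth inhibition of SCC-25 cells, measured with a cell viability assay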
Description: SANGER: Inhibition of human SCC-25 cell growth in a cell viability assay.

HC-1 = assay: cells; assay type: functional, cell-based, Homo sapiens; conditions: Homo sapiens, HC-1;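 further: growth inhibition of HC-1 cells measured by a cell viability assay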
Description: SANGER: Inhibition of human HC-1 cell growth in a cell viability assay.

RCM-1 = assay: cells; assay type: functional, cell-based; conditions: Homo sapiens;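 further: growth inhibition of the RCM-1 line, determined with a cell viability readout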
Description: SANGER: Inhibition of human RCM-1 cell growth in a cell viability assay.

HCC1599 = assay: cells; assay type: functional, cell-based, Homo sapiens; conditions: Homo sapiens, HCC1599;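 further: growth inhibition of HCC1599 cells, read out in a cell viability assay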
Description: SANGER: Inhibition of human HCC1599 cell growth in a cell viability assay.

For `Cc1ccc(C(=O)Nc2ccc(CN3CCN(C)CC3)c(C(F)(F)F)c2)cc1C#Cc1cnc2cccnn12` [PONATINIB], the IC50 (UMC-11) was over 0.512 µM, the IC50 (NCI-H889) was over 0.512 µM and the IC50 (DMS-79) was over 0.512 µM. The IC50 (IST-SL2) was over 0.512 µM, the IC50 (8305C) was 0.398 µM and the IC50 (CAL-72) was over 0.512 µM. For the same compound, the IC50 (NCI-H28) was over 0.512 µM, the IC50 (DK-MG) was over 0.512 µM and the IC50 (P31-FUJ) was over 0.512 µM. It also gave an IC50 (NCI-H1623) of over 0.512 µM, an IC50 (NCI-H187) of over 0.512 µM and an IC50 (NALM-6) of 0.255 µM. For the same compound, the IC50 (MG-63) was over 0.512 µM, the IC50 (OVCAR-8) was over 0.512 µM and the IC50 (MIA PaCa-2) was over 0.512 µM. It also gave an IC50 (Panc1005) of over 0.512 µM, an IC50 (SW948) of over 0.512 µM and an IC50 (SK-MEL-28) of over 0.512 µM. It also gave an IC50 (769-P) of over 0.512 µM, an IC50 (P12-Ichikawa) of over 0.512 µM and an IC50 (RO82-W-1) of over 0.512 µM. It also gave an IC50 (MeWo) of over 0.512 µM, an IC50 (KP-4) of over 0.512 µM and an IC50 (U2OS) of over 0.512 µM. For the same compound, the IC50 (NCI-H2347) was over 0.512 µM, the IC50 (BHT-101) was over 0.512 µM and the IC50 (HT55) was over 0.512 µM. For the same compound, the IC50 (A-431) was over 0.512 µM, the IC50 (Huh-7) was 0.278 µM and the IC50 (NCCIT) was over 0.512 µM. It also gave an IC50 (SK-N-AS) of over 0.512 µM, an IC50 (SK-MEL-30) of over 0.512 µM and an IC50 (SAOS-2) of over 0.512 µM. The IC50 (23132-87) was over 0.512 µM, the IC50 (647-V) was over 0.512 µM and the IC50 (MFH-ino) was over 0.512 µM. It also gave an IC50 (EFM-19) of over 0.512 µM, an IC50 (MHH-ES-1) of over 0.512 µM and an IC50 (NCI-H460) of over 0.512 µM. The IC50 (OE33) was over 0.512 µM, the IC50 (G-401) was over 0.512 µM and the IC50 (EGI-1) was over 0.512 µM. The IC50 (ChaGo-K-1) was over 0.512 µM, the IC50 (EVSA-T) was over 0.512 µM and the IC50 (SF-295) was over 0.512 µM. For the same compound, the IC50 (MKN-28) was over 0.512 µM, the IC50 5637 was over 0.512 µM and the IC50 (WM-115) was over 0.512 µM. It also gave an IC50 (NCI-H719) of 0.0789 µM, an IC50 (BCPAP) of 0.36 µM and an IC50 (WSU-NHL) of over 0.512 µM. The IC50 (NCI-H441) was over 0.512 µM, the IC50 (PANC-08-13) was over 0.512 µM and the IC50 (BL-41) was over 0.512 µM. For the same compound, the IC50 (HSC-3) was over 0.512 µM, the IC50 (HPAF-II) was over 0.512 µM and the IC50 (SCC-25) was over 0.512 µM. For the same compound, the IC50 (HC-1) was over 0.512 µM, the IC50 (RCM-1) was over 0.512 µM and the IC50 (HCC1599) was over 0.512 µM.
For `CCCCCCCCCCCC1=C(O)C(=O)C=C(O)C1=O` [EMBELIN], the IC50 (UMC-11) was over 32 µM, the IC50 (NCI-H889) was over 32 µM and the IC50 (DMS-79) was over 32 µM. The IC50 (IST-SL2) was over 32 µM, the IC50 (8305C) was 25.7 µM and the IC50 (CAL-72) was 10.4 µM. For the same compound, the IC50 (NCI-H28) was 26 µM, the IC50 (DK-MG) was over 32 µM and the IC50 (P31-FUJ) was over 32 µM. For the same compound, the IC50 (NCI-H1623) was 25.4 µM, the IC50 (NCI-H187) was over 32 µM and the IC50 (NALM-6) was 9.09 µM. For the same compound, the IC50 (MG-63) was 9.64 µM, the IC50 (OVCAR-8) was 11.3 µM and the IC50 (MIA PaCa-2) was 4.7 µM. The IC50 (Panc1005) was over 32 µM, the IC50 (SW948) was over 32 µM and the IC50 (SK-MEL-28) was 8.48 µM. The IC50 (769-P) was 8.47 µM, the IC50 (P12-Ichikawa) was 9.45 µM and the IC50 (RO82-W-1) was over 32 µM. It also gave an IC50 (MeWo) of 15.9 µM, an IC50 (KP-4) of over 32 µM and an IC50 (U2OS) of over 32 µM. For the same compound, the IC50 (NCI-H2347) was 7.48 µM, the IC50 (BHT-101) was 20 µM and the IC50 (HT55) was over 32 µM. For the same compound, the IC50 (A-431) was 5.76 µM, the IC50 (Huh-7) was over 32 µM and the IC50 (NCCIT) was 19.2 µM. It also gave an IC50 (SK-N-AS) of 13.8 µM, an IC50 (SK-MEL-30) of 12.8 µM and an IC50 (SAOS-2) of 3.95 µM. The IC50 (23132-87) was 23.3 µM, the IC50 (647-V) was 24.5 µM and the IC50 (MFH-ino) was 5.58 µM. It also gave an IC50 (EFM-19) of 4.91 µM, an IC50 (MHH-ES-1) of 15.8 µM and an IC50 (NCI-H460) of 6.09 µM. For the same compound, the IC50 (OE33) was 13.3 µM, the IC50 (G-401) was 8.32 µM and the IC50 (EGI-1) was 23.1 µM. It also gave an IC50 (ChaGo-K-1) of 7.08 µM, an IC50 (EVSA-T) of over 32 µM and an IC50 (SF-295) of 1.75 µM. For the same compound, the IC50 (MKN-28) was 10 µM, the IC50 5637 was 13.2 µM and the IC50 (WM-115) was 13.8 µM. It also gave an IC50 (NCI-H719) of over 32 µM, an IC50 (BCPAP) of 13.7 µM and an IC50 (WSU-NHL) of 13.6 µM. The IC50 (NCI-H441) was 6.01 µM, the IC50 (PANC-08-13) was over 32 µM and the IC50 (BL-41) was 5.5 µM. For the same compound, the IC50 (HSC-3) was 23.9 µM, the IC50 (HPAF-II) was 25.4 µM and the IC50 (SCC-25) was over 32 µM. The IC50 (HC-1) was 5.4 µM, the IC50 (RCM-1) was 22.4 µM and the IC50 (HCC1599) was 9.04 µM.
